One compound from PMC8567874, “Metronomic delivery of orally available pemetrexed-incorporated colloidal dispersions for boosting tumor-specific immunity” (Drug Delivery, 2021) can be followed below.

A short description of the data set: In situ single-pass rat intestinal perfusion. Type of data set: in vivo. The note with it: other: in situ single-pass intestinal perfusion, rat intestine, n = 4, read-out: Effective permeability (Peff). How it is done: The in situ single-pass intestinal effective permeabilities (Peff) of PMX, PMX/DL(1:1), PMX/DL(1:2), PMX/DL(1:1)-CD, and PMX/DL(1:2)-CD were investigated in rats. The rats were fasted overnight for 12–16 h with free access to water before the experiment and then anesthetized by intramuscular injection of tiletamine·HCl–zolazepam mixture (1:1 [w/w]; 40 mg/kg). With the animal in the supine position, the abdominal cavity was opened using a midline longitudinal incision, and the intestine (duodenum, jejunum, and ileum) was exposed and subsequently intubated at the two ends with a polypropylene perfusion tube connected to a peristaltic pump (Harvard Apparatus, Holliston, MA, USA). After covering the entire excised area with a cotton pad soaked with warm normal saline, the cannulated intestinal segments were flushed with blank perfusion buffer at 37 °C for 30 min, at a constant flow rate of 0.5 mL/min, to remove residual intestinal contents. Then, drug solutions of PMX, PMX/DL(1:1), PMX/DL(1:2), PMX/DL(1:1)-CD, or PMX/DL(1:2)-CD (equivalent to 100 μg/mL PMX) were perfused through the intestinal lumen at 37 °C and a constant flow rate of 0.2 mL/min. After allowing 30 min to achieve a steady-state, outlet perfusate was collected every 15 min for 120 min. In addition, to assess the reliability of the perfusion study, 100 μg/mL fluorescein diluted in perfusion buffer was perfused separately under the same conditions and the collected samples were analyzed at excitation/emission wavelengths of 494/512 nm using a microplate reader (PerkinElmer multimode plate reader; PerkinElmer, Waltham, MA, USA) as a low-permeability marker. During the experiment, all animals were kept on heated pads under a heat lamp to maintain a normal body temperature. At the end of the experiment, the lengths and radii of the cannulated intestinal segments were measured, taking care to avoid stretching them. The collected samples were then filtered using 0.45-μm PVDF filters and stored at −20 °C before analyses. The outlet concentration of PMX in the perfusate was analyzed by HPLC as described above. In addition, the errors caused by rat intestinal water absorption and secretion during perfusion were corrected by the net water flux (ratio of the […] perfusate flows, Qout/Qin) and the corrected drug concentration in perfusate for each formulation was calculated based on the following equation (i.e. gravimetric method): Cout,corr = Cout × (Qout/Qin), where Cout,corr is the corrected outlet PMX concentration (µg/mL), Cout is the PMX outlet concentration (µg/mL), Qin (mL/min) is the flow rate entering the intestine, and Qout (mL/min) is the measured perfusate exit flow (net weight/15 min, assumed density of 1.0 g/mL) for the specified time interval. After correction, the Peff was calculated using the equation: Peff = Qin/A × ln(Cout,corr/Cin), where A is the intestinal area available for absorption (2πrl) based on its length (l) and radius (r).

Consider `O=C1OC2(c3ccc(O)cc3Oc3cc(O)ccc32)c2ccccc21` [fluorescein], for which the Papp at 120 min, 100 μg/mL was determined as 0.1 ± 0.2 ×10⁻⁶ cm/s.
